Reference: US9284325B2, “Spectinamides as anti-tuberculosis agents” (UNIVERSITY OF TENNESSEE RESEARCH FOUNDATION, priority 2009, dated 2016)
Counter-ions that a name gives are not always drawn.

Legend:
M. tuberculosis H37Rv = experiment: MIC determination by microbroth dilution, anti-tuberculosis activity; type: cell-based, Mycobacterium tuberculosis
in vitro [1] = type: in vitro ADME; settings: rat, plasma, pH 7.4
Method: Protein Binding: Protein binding of the compounds was determined using equilibrium dialysis. Biologically relevant concentrations of test compound were prepared (low and high) in rat plasma. 200 μL of the plasma sample was placed in the central chamber and 350 μL of blank isotonic phosphate buffer, pH 7.4 was added to the peripheral chamber of a dialysis device (MW cutoff 6000-8000 D, RED® device, Pierce Biotechnology Inc, Rockford, Ill., United States of America). The chambers were covered with a seal and incubated at 37° C. for four hours on a shaker set at 100 rpm. At the end of incubation, the volumes of plasma and recipient buffer were measured to identify and account for volume shift, if any. Aliquots of plasma and buffer were used to determine the drug concentration using an LC-MS/MS assay. The free fraction of the drug was calculated as ratio of the concentrations in the buffer and in plasma.
Following intravenous administration of 10 mg/kg in rats, 1329 follows a bi-exponential concentration/time profile with distinct distribution and elimination phases. Plasma protein binding of the compound is approximately 30%. 1329 is widely distributed with a steady state volume of distribution of 4.3 L/kg. It has a mean residence time in the body of approximately 5.3 hours.

Vero epithelial cells = settings: African green monkey
[2] = tested on: Proteus vulgaris ATCC 33420; experiment: MIC determination by microbroth dilution; type: cell-based; settings: ATCC33420
in vitro [3] = settings: African green monkey
E. faecalis ATCC 33186 = experiment: MIC determination by microbroth dilution; type: cell-based, Enterococcus faecalis; settings: Enterococcus faecalis, ATCC33186
[4] = tested on: Klebsiella pneumoniae ATCC 33495; experiment: MIC determination by microbroth dilution; type: cell-based; settings: ATCC33495
[5] = tested on: S. aureus 8325 or strain ATCC 29213; experiment: MIC determination by microbroth dilution; type: cell-based, Staphylococcus aureus; settings: Staphylococcus aureus, ATCC29213; S. aureus 8325 or strain ATCC 29213 (for 1471-1544)
E. coli ribosomes = type: biochemical
[6] = tested on: Acinetobacter baumannii ATCC 19606; experiment: MIC determination by microbroth dilution; type: cell-based; settings: ATCC19606
[7] = tested on: Strep. pyogenes ATCC 700294; experiment: MIC determination by microbroth dilution; type: cell-based, Streptococcus pyogenes; settings: Streptococcus pyogenes, ATCC700294, read-out: MIC S. pyogenes
in vivo = experiment: in vivo; parameters: species or system rats; settings: male, Sprague-Dawley, rat, iv
Method: Pharmacokinetic Studies: Catheterized male Sprague-Dawley rats (jugular vein alone for oral study and jugular vein and femoral vein for intravenous study) weighing approximately 225 g were obtained from Harlan Bioscience (Indianapolis, Ind., United States of America). The animals were kept on a 12 hr light/dark cycle with food and water available ad libitum. Groups of rats (n=4) received either an intravenous (IV) or oral dose of a test compound at a dose level of 10 mg/kg or 100 mg/kg, respectively. For oral administration, the animals were fasted overnight and until 4 hr after administration of test compound. Serial blood samples (approx. 250 μL) were collected pre-dose and at predetermined time points post-dose until 48 hours. Plasma was separated immediately by centrifugation (10,000 rpm for 10 min at 4° C.) and stored at −80° C. until analysis. Urine specimens were collected for a period of 48 hours following drug administration. The study protocol was approved by the institutional animal care and use committee of the University of Tennessee Health Science Center (Memphis, Tenn., United States of America).
Sample Preparation and LC-MS/MS Assay: A calibration curve ranging from 7.81-1000 μg/L was constructed for each test compound by spiking the test compound into 50 μL of blank plasma. […] Plasma proteins were precipitated by the addition of four volumes of ice cold methanol containing IS. These samples were vortexed and kept on ice for 20 minutes. Following this, the samples were centrifuged at 10,000 rpm for 10 minutes at 4° C. and the supernatants were diluted if necessary and injected onto LC-MS/MS for analysis. Chromatographic separations were carried out using a Shimadzu liquid chromatograph (Shimadzu Corporation, Kyoto, Japan) consisting of two pumps, online degasser, system controller and a CTC Leap auto sampler (Leap Technologies, Carrboro, N.C., United States of America). A gradient of methanol and 10 mM ammonium acetate at pH 3.5 was used at a flow rate of 0.4 mL/min. A Phenomenex® Luna 3μ HILIC, 100×4.6 mm column (Phenomenex, Torrance, Calif., United States of America) protected with a guard column was used for the separation. 10 μL of sample was injected onto the column and the eluate was led directly into an API 3000 triple-quadrupole mass spectrometer (Applied Biosystems ABI/MDS-Sciex, Foster City, Calif., United States of America) equipped with an electrospray ion source. The instrument was operated in the positive ion mode with nebulizer gas (NEB) at 7 psi, curtain gas (CUR) at 8 psi, collision gas (CAD) at 10 psi, ion spray voltage (IS) at +4000 V and temperature (TEM) at 500° C. The resulting multiple reaction monitoring chromatograms were used for quantification using Analyst software version 1.4.1 (Applied Biosystems ABI/MDS-Sciex, Foster City, Calif., United States of America).
Pharmacokinetic Data Analysis: Plasma concentration-time data for oral dose were analyzed by non-compartmental analysis. A two compartment open model with bolus input and first order output was used to analyze the IV plasma concentration-time data. The area under the plasma concentration-time curve from time 0 to infinity (AUCinf) was calculated by the trapezoidal rule with extrapolation to time infinity. Mean residence time (MRT), the average amount of time a particle remains in a compartment of system was calculated for IV dose using MRT=AUMCinf/AUCinf where AUMCinf is the area under the moment curve when the concentration-time curve is extrapolated to infinity. The systemic clearance (CL) was calculated using the equation CL=Doseiv/AUCinf iv, where Doseiv and AUCinf, iv are the IV dose and corresponding area under the plasma concentration-time curve from time 0 to infinity, respectively. An estimate of volume of distribution at steady state (Vss) was obtained from IV data using Vss=MRT*CL. […]

B. anthracis Sterne 34F2 = experiment: microbe, parasite or virus in culture; type: cell-based, Bacillus anthracis; settings: Bacillus anthracis, STERNE34F2, read-out: MIC B. anthracis 34F2

Compound: CN[C@@H]1[C@H](O)[C@H](NC)C2O[C@]3(O)C(OC2[C@H]1O)O[C@H](C)C[C@H]3NC(=O)Cc1ccccn1 (stereo partly drawn) [Compound 1329, 3′-Dihydro-3′-deoxy-4(R)-(pyridin-2yl)acetylamino spectinomycin Dihydrochloride]
- Activity (MIC) of 1329 compared to streptomycin (M. tuberculosis H37Rv): 0.8-1.6
- MIC (M. tuberculosis H37Rv; Mycobacterium tuberculosis, H37RV, 168 h, read-out: MIC): 0.8 µg/mL
- fraction unbound at 4 h (in vitro [1]): ~0.7
- therapeutic index (IC50 divided by the MIC) (Vero epithelial cells): 5456
- MIC [2]: > 200 µg/mL
- IC50 at 72 h (in vitro [3]): 2180 µg/mL
- MIC (E. faecalis ATCC 33186): 100 µg/mL
- MIC [4]: > 200 µg/mL
- MIC [5]: 50 µg/mL
- IC50 (E. coli ribosomes; E. coli S30 system, FIG. 4, read-out: concentration causing 50% reduction in the synthesis of luciferase): 660 nM
- IC50, 50% inhibition of luciferase biosynthesis in S30 assay (E. coli ribosomes; E. coli S30 transcription/translation assay): 0.29 µg/mL
- MIC [6]: > 200 µg/mL
- MIC [7]: 50 µg/mL
- clearance (in vivo): 13.3 mL/min/kg
- dose eliminated unchanged in the first 6 hours (in vivo): approx. 40%
- excretion ratio (renal clearance to glomerular filtration rate) (in vivo): 1.7
- fraction of dose excreted unchanged by the kidneys (in vivo): 0.46
- hepatic extraction ratio (in vivo): 0.13
- MRT (in vivo; 10 mg/kg): ~5.3 h
- MIC (B. anthracis Sterne 34F2): 50 µg/mL
